# Measurements: ChEMBL document CHEMBL6177973, “A Novel Compound 3a-M1, from Metabolites of Sinomenine Derivative 3a, Exerts Potent Anti-Aplastic Anemia Activity via IP3R/ORAI-Mediated CTL Ferroptosis” (J Med Chem, 2025)
# The source made the active and inactive calls. The rule behind the calls is not given here.
# Legend:
# Mus musculus [1] = test: Anti-aplastic anemia activity in C57BL/6J mouse model of immune-mediated bone marrow failure assessed as reduction in cytotoxic T lymphocytes hyperactivation at 5 to 15 mg/kg, IG qd treated for 12 days; format: functional, organism-based; conditions: dose 5-15 mg/kg, time 12.0 day
# CTLL-2 [2] = test: Induction of ferroptosis in mouse CTLL-2 cells assessed as increase in mitochondrial superoxide level incubated for 16 hrs by MitoSOX Red staining based fluorescent microscopy; format: functional, cell-based; conditions: dose 7.5-30 µM
# Mus musculus [3] = test: Anti-aplastic anemia activity in C57BL/6J mouse model of immune-mediated bone marrow failure assessed as decrease in ratio of CD8+ to CD4+ T cells at 5 to 15 mg/kg, IG qd treated for 12 days by flow cytometry; format: functional, organism-based; conditions: dose 5-15 mg/kg, time 12.0 day
# CTLL-2 [4] = test: Cytotoxicity against mouse CTLL-2 cells assessed as inhibition of cell viability incubated for 72 hrs by CCK8 assay; format: functional, cell-based; conditions: CTLL-2, 72 h, read-out: IC50
# [5] = AUC in Sprague-Dawley rat at 50 mg/kg, po measured for 0.083 to 24 hrs by HPLC analysis; format: ADME, organism-based; conditions: in vivo, time 0.083-24 hrs
# Mus musculus [6] = test: Anti-aplastic anemia activity in C57BL/6J mouse model of immune-mediated bone marrow failure assessed as reduction in IFN-gamma level at 5 to 15 mg/kg, IG qd treated for 12 days by ELISA; format: functional, organism-based; conditions: dose 5-15 mg/kg, time 12.0 day
# CTLL-2 [7] = test: Induction of ferroptosis in mouse CTLL-2 cells assessed as increase in intracellular Ca2+ concentration incubated for 24 hrs by Fluo-4 AM dye based analysis; format: functional, cell-based
# Mus musculus [8] = test: Anti-aplastic anemia activity in BALB/c mouse model of immune-mediated bone marrow failure assessed as increase in hemoglobin level at 10 mg/kg, po treated for 14 days; format: functional, organism-based; conditions: time 14.0 day
# Mus musculus [9] = test: Anti-aplastic anemia activity in C57BL/6J mouse model of immune-mediated bone marrow failure assessed as increase in peripheral red blood cells treated intragastrically once daily for 21 days; format: functional, organism-based; conditions: dose 5-15 mg/kg, route ig, time 21.0 day
# Mus musculus [10] = test: Anti-aplastic anemia activity in C57BL/6J mouse model of immune-mediated bone marrow failure assessed as reduction in proportion of effector CD8+ T cells at 5 to 15 mg/kg, IG qd treated for 12 days by flow cytometry; format: functional, organism-based; conditions: dose 5-15 mg/kg, time 12.0 day
# CTLL-2 [11] = test: Induction of ferroptosis in IL-2-stimulated mouse CTLL-2 cells assessed as increase in pERK level at 30 uM incubated for 6 hrs followed by Fer-1 addition measured after 10 hrs by Western blot analysis; format: functional, cell-based; conditions: time 16.0 hrs
# CTLL-2 [12] = test: Induction of ferroptosis in mouse CTLL-2 cells assessed as increase in intracellular Ca2+ concentration at 10 uM incubated for 60 mins in presence of EDTA by Fluo-4 AM dye based analysis; format: functional, cell-based
# CTLL-2 [13] = test: Induction of ferroptosis in mouse CTLL-2 cells assessed as increase in p-p38 level at 7.5 to 30 uM incubated for 16 hrs by Western blot analysis; format: functional, cell-based; conditions: dose 7.5-30 µM
# Mus musculus [14] = test: Anti-aplastic anemia activity in C57BL/6J mouse model of immune-mediated bone marrow failure assessed as CD4+ T cells at 5 mg/kg, IG qd treated for 12 days by flow cytometry (reference value: 12.93 %); format: functional; conditions: time 12 day
# CTLL-2 [15] = test: Induction of ferroptosis in mouse CTLL-2 cells assessed as increase in ROS level at 10 uM incubated for 45 mins in presence of CM4620; format: functional, cell-based
# Mus musculus [16] = test: Anti-aplastic anemia activity in BALB/c mouse model of immune-mediated bone marrow failure assessed as increase in peripheral red blood cells at 10 mg/kg, po treated for 14 days; format: functional, organism-based; conditions: time 14.0 day
# Mus musculus [17] = test: Anti-aplastic anemia activity in C57BL/6J mouse model of immune-mediated bone marrow failure assessed as CD4+ T cells at 10 mg/kg, IG qd treated for 12 days by flow cytometry (reference value: 12.93 %); format: functional; conditions: time 12 day
# Mus musculus [18] = test: Anti-aplastic anemia activity in BALB/c mouse model of immune-mediated bone marrow failure assessed as increase in body weight at 10 mg/kg, po treated for 14 days; format: functional, organism-based; conditions: time 14.0 day
# CTLL-2 [19] = test: Induction of ferroptosis in mouse CTLL-2 cells assessed as increase in intracellular Ca2+ concentration at 10 uM incubated for 45 mins in presence of 2-APB by Fluo-4 AM dye based analysis; format: functional, cell-based
# HL-60 = test: Cytotoxicity against human HL-60 cells assessed as inhibition of cell viability incubated for 72 hrs by CCK8 assay; format: functional, cell-based; conditions: HL-60, 72 h
# Mus musculus [20] = test: Anti-aplastic anemia activity in C57BL/6J mouse model of immune-mediated bone marrow failure assessed as CD8+ T cells at 10 mg/kg, IG qd treated for 12 days by flow cytometry (reference value: 72.15 %); format: functional; conditions: time 12 day
# [21] = Drug metabolism in mouse plasma assessed as cinnamic acid metabolite formation administered orally by HRMS analysis; format: ADME; conditions: po
# [22] = Drug metabolism in mouse lymph node assessed as (4bR,9S)-1-(hydroxymethyl)-3,7-dimethoxy-11-methyl-6-oxo-6,8a,9,10-tetrahydro-5H-9,4b-(epiminoethano)phenanthren-4-yl cinnamate metabolite formation at 50 mg/kg, po measured for 0.083 to 8 hrs by HPLC analysis; format: ADME, organism-based; conditions: in vivo, time 0.083-8 hrs
# [23] = Drug metabolism in mouse blood assessed as cinnamic acid metabolite formation at 50 mg/kg, po measured for 0.083 to 8 hrs by HPLC analysis; format: ADME, organism-based; conditions: in vivo, time 0.083-8 hrs
# [24] = Drug metabolism in mouse thymus assessed as cinnamic acid metabolite formation at 50 mg/kg, po measured for 0.083 to 8 hrs by HPLC analysis; format: ADME, organism-based; conditions: in vivo, time 0.083-8 hrs
# [25] = Drug metabolism in rat plasma assessed as double hydrolyzation/double demethylation-mediated metabolite formation at 50 mg/kg, po measured for 24 hrs by HRMS analysis; format: ADME, organism-based; conditions: in vivo
# [26] = Drug metabolism in mouse thymus assessed as (4bR,9S)-1-(hydroxymethyl)-3,7-dimethoxy-11-methyl-6-oxo-6,8a,9,10-tetrahydro-5H-9,4b-(epiminoethano)phenanthren-4-yl cinnamate metabolite formation at 50 mg/kg, po measured for 0.083 to 8 hrs by HPLC analysis; format: ADME, organism-based; conditions: in vivo, time 0.083-8 hrs
# [27] = Stability in mouse thymus assessed as compound remaining at 50 mg/kg, po measured for 0.083 to 8 hrs by HPLC analysis; format: ADME, organism-based; conditions: in vivo, time 0.083-8 hrs
# [28] = Drug metabolism in rat plasma assessed as double hydrolyzation-mediated metabolite formation at 50 mg/kg, po measured for 24 hrs by HRMS analysis; format: ADME, organism-based; conditions: in vivo
# [29] = Drug metabolism in mouse bone marrow assessed as (4bR,9S)-1-(hydroxymethyl)-3,7-dimethoxy-11-methyl-6-oxo-6,8a,9,10-tetrahydro-5H-9,4b-(epiminoethano)phenanthren-4-yl cinnamate metabolite formation at 50 mg/kg, po measured for 0.083 to 8 hrs by HPLC analysis; format: ADME, organism-based; conditions: in vivo, time 0.083-8 hrs
# [30] = Stability in mouse blood assessed as compound remaining at 50 mg/kg, po measured for 0.083 to 8 hrs by HPLC analysis; format: ADME, organism-based; conditions: in vivo, time 0.083-8 hrs
# [31] = Drug metabolism in rat plasma assessed as double hydrolyzation/hydroxylation-mediated metabolite formation at 50 mg/kg, po measured for 24 hrs by HRMS analysis; format: ADME, organism-based; conditions: in vivo
# [32] = Stability in mouse small intestine assessed as compound remaining at 50 mg/kg, po measured for 0.083 to 8 hrs by HPLC analysis; format: ADME, organism-based; conditions: in vivo, time 0.083-8 hrs
compound,measurement,setting,value
COC1=C[C@@H]2[C@@H]3Cc4c(CO)cc(OC)c(OC(=O)/C=C/c5ccccc5)c4[C@]2(CCN3C)CC1=O,Activity,Mus musculus [1],Active
same,Activity,CTLL-2 [2],Dose-dependent-effect
same,Activity,Mus musculus [3],Active
same,IC50,CTLL-2 [4],37.9 µM
same,AUC,[5],15400 ng·h/mL
same,Activity,Mus musculus [6],Active
same,Activity,CTLL-2 [7],Active
same,Activity,Mus musculus [8],Active
same,Activity,Mus musculus [9],Dose-dependent-effect
same,Activity,Mus musculus [10],Active
same,Activity,CTLL-2 [11],inactive
same,Activity,CTLL-2 [12],Active
same,Activity,CTLL-2 [13],Active
same,Activity,Mus musculus [14],11.38%
same,Activity,CTLL-2 [15],inactive
same,Activity,Mus musculus [16],Active
same,Activity,Mus musculus [17],21.08%
same,Activity,Mus musculus [18],Active
same,Activity,CTLL-2 [19],inactive
same,IC50,HL-60,133 µM
same,Activity,Mus musculus [20],38.55%
COC1=C[C@@H]2[C@@H]3Cc4c(COC(=O)/C=C/c5ccccc5)cc(OC)c(OC(=O)/C=C/c5ccccc5)c4[C@]2(CCN3C)CC1=O,Drug metabolism,[21],metabolite_detected
same,Drug metabolism,[22],metabolite_detected
same,Drug metabolism,[23],metabolite_detected
same,Drug metabolism,[24],metabolite_detected
same,Drug metabolism,[25],metabolite_detected
same,Drug metabolism,[26],metabolite_detected
same,Stability,[27],Unstable
same,Drug metabolism,[28],metabolite_detected
same,Drug metabolism,[29],metabolite_detected
same,Stability,[30],Unstable
same,Drug metabolism,[31],metabolite_detected
same,Stability,[32],Stable
